Counter-ions that a name gives are not always drawn. Like-named read-outs stand apart in the source and are kept apart here.
Assays:
[1] = biological target: PARP-3 (Homo sapiens (Human), UniProt Q9Y6F1); test: Fluorescence polarization displacement assay with probe of formula (IP), PARP-3; type: binding
Description: (§1) Affinity evaluation of the tested compounds and their selectivity with respect to the different PARP isoforms of interest was assessed in a displacement assay.
(§2) b) comparing the polarization signal generated in the absence of the test compound with the one generated in the presence of different concentrations of the test compound, and
(§3) c) evaluating the ability of the test compound to displace the compound of formula (IP) as defined above indicated from a decreased fluorescence polarization level.
(§4) The 5H-phenanthridin-6-one-derived probe (IP) was selected for its capability of binding to the PARP proteins, both encompassing full-length native proteins and fragments thereof.
(§5) The polarization signal can be measured, e.g., by a plate reader such as the Saphire2 (Tecan). Data analysis was performed, e.g., by using the Dynafit software. Displacement data were also fitted, e.g., by using Excel spreadsheet (Microsoft Inc. Seattle, USA) to a four parameter logistic model (4PL), or Hill-Slope model. The assay was used to test compounds of the present invention. The displacement ability of the test compounds of formula (I) is in correlation with the compounds affinity for the NAD pocket of the enzyme.

[2] = Pharmacokinetics and oral bioavailability in the mouse; type: in vivo; conditions: for F on AUC: 10 mg/kg, ratio of oral to IV dose-normalized AUC; for clearance / Vd / AUC / Cmax / half-life: male, Balb Nu/Nu, plasma, mean value; for clearance / Vd: 10 mg/kg intravenous bolus; for clearance: read-out: Cl (IV bolus); for Vd: read-out: Vdss (IV bolus); for AUC / Cmax / half-life: 10 mg/kg oral; for half-life: read-out: T½ (oral) (converted)
[3] = system: hydrogen peroxide induced PAR formation in HeLa cells; test: PAR assay: inhibition of hydrogen peroxide induced PAR formation in HeLa cells; conditions: Homo sapiens, read-out: PAR assay (IC50 μM)
[4] = biological target: PARP-1 (Homo sapiens (Human), UniProt P09874); test: Fluorescence polarization displacement assay with probe of formula (IP), PARP-1; type: binding; conditions: for DC50: probe P1
Description: as §1, §2, §3, §4, §5

[5] = biological target: PARP-2 (Homo sapiens (Human), UniProt Q9UGN5); test: Fluorescence polarization displacement assay with probe of formula (IP), PARP-2; type: binding; conditions: probe P1
Description: as §1, §2, §3, §4, §5

[6] = system: BRCA-mutated cancer; conditions: 19 patients with BRCA mutations and breast, ovarian and prostate cancer, phase I; cited from earlier work
[7] = system: Capan-1 human pancreatic cancer tumors; test: In vivo efficacy as single agent, Capan-1 BRCA-2 mutated mouse model; conditions: 75 mg/kg oral daily; for Max TGI (%): single agent, Capan-1 xenograft; for Toxicity: body weight reduction, out of 7 mice treated
Excerpt: Balb, athymic Nu/Nu male mice, from Harlan (Italy), were maintained in agreement with the European Communities Council Directive no. 86/609/EEC concerning the protection of animals used for experimental or other scientific purposes, in cages with paper filter cover, food and bedding sterilized and acidified water. Fragments of Capan-1 human pancreatic cancer tumors were implanted subcutaneously. […] Each group included seven animals. The treatment started one day after randomization. Compound of formula (I) was administered by oral route as a methocel suspension at the indicated doses and times. Tumor dimension was measured regularly by calipers during the experiments and tumor mass was calculated as described in Simeoni M. et al., Cancer Res 64, 1094-1101 (2004).

[8] = probe P1; read-out: PARP-3 (DC50 μM)

Chain of PARP-1 (P09874 whole entry): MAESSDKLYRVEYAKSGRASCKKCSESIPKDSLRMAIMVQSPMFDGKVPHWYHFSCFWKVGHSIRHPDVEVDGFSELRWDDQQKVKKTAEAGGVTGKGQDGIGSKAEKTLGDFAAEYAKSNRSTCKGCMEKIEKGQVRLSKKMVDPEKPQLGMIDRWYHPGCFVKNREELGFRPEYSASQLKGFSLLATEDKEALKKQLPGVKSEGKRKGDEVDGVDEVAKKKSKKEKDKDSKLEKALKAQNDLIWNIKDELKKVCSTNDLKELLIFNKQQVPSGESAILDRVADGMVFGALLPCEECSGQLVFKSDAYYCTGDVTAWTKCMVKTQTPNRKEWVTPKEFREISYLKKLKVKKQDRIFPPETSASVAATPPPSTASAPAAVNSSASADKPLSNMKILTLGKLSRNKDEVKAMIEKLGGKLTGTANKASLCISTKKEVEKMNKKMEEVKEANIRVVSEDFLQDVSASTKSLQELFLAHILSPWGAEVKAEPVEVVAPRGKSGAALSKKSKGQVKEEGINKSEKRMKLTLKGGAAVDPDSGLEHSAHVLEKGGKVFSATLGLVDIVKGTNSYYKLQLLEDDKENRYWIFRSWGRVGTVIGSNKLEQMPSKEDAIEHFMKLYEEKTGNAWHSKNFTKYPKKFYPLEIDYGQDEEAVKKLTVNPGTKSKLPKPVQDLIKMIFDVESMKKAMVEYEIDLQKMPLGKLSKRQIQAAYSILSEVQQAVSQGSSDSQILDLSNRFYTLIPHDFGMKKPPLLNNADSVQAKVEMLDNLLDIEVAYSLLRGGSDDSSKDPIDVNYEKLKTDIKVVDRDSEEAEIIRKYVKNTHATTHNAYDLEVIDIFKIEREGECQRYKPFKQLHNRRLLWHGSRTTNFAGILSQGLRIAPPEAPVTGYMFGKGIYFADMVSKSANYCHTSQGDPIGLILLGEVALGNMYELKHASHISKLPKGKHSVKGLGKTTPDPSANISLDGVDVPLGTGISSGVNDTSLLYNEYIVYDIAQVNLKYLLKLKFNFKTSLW
Chain of PARP-2 (Q9UGN5 whole entry): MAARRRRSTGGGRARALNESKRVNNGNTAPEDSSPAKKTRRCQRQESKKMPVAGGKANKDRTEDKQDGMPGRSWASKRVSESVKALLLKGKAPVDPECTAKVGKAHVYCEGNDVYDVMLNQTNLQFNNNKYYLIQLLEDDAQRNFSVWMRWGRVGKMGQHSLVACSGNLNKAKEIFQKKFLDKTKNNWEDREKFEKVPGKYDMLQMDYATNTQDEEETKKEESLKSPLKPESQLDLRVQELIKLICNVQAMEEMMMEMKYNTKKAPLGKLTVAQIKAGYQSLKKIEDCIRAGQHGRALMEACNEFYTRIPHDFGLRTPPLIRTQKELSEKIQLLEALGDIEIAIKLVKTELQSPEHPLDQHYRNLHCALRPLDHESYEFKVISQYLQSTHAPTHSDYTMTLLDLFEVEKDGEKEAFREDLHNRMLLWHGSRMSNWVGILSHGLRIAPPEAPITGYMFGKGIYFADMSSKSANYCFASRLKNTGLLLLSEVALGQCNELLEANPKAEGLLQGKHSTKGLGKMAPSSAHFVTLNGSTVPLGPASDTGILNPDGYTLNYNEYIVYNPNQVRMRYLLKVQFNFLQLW
Chain of PARP-3 (Q9Y6F1 whole entry): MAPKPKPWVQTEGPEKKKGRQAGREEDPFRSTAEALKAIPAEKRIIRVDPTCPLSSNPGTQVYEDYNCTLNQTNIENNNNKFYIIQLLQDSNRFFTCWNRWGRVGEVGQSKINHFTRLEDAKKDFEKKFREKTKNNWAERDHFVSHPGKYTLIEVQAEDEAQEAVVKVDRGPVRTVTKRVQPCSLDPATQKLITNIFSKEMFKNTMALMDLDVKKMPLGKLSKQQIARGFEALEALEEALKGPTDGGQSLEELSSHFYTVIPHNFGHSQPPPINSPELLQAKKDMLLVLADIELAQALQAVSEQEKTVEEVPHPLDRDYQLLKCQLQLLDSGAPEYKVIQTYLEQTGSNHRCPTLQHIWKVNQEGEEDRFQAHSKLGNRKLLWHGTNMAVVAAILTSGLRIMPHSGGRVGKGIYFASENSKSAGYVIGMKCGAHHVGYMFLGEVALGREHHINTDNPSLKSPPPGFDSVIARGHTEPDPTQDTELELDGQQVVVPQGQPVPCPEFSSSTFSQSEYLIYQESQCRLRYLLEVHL

Work on `NC(=O)c1cccc2c1C(=O)N(C1CCN(C3CCOCC3)CC1)C2` [(28), 3-ox-2-[1-(tetrahydro-pyran-4-yl)-piperidin-4-yl]-2,3-dihydro-1H-isoindole-4-carboxylic Acid Amide] yielded a DC50 [1, 8] of 5.48 µM.

With `NC(=O)c1cccc2c1C(=O)N(C1CCN(Cc3ccoc3)CC1)C2` [(14), 2-(1-furan-3-ylmethyl-piperidin-4-yl)-3-oxo-2,3-dihydro-1H-isoindole-4-carboxylic Acid Amide] the “F on AUC” value [2] was 57%, the clearance [2] was 4.91 L/h/kg and the Vd [2] was 2.68 L/kg. For the same compound, the AUC [2] was 3.22 µM·h, the Cmax [2] was 2.29 µM and the half-life [2] was 53.4 min. The IC50 [3] was 0.011 µM.

In the case of `NC(=O)c1cccc2c1C(=O)N(C1CCN(Cc3cccs3)CC1)C2` [(9), 3-oxo-2-(1-thiophen-2-ylmethyl-piperidin-4-yl)-2,3-dihydro-1H-isoindole-4-carboxylic Acid Amide], the IC50 [3] is reported as 1.4 µM.

With `NC(=O)c1cccc2c1C(=O)N(CCCN1CCCc3ccccc31)C2` [(20), 2-[3-(3,4-dihydro-2H-quinolin-1-yl)-propyl]-3-oxo-2,3-dihydro-1H-isoindole-4-carboxylic Acid Amide] the Kd [4] was < 0.03 µM, the DC50 [4] was < 0.25 µM and the DC50 [5] was 0.58 µM. It also gave a Kd [5] of 0.19 µM and an IC50 [3] of 0.83 µM.

With `NC(=O)c1cccc2c1C(=O)N(C1CCN(Cc3ccco3)CC1)C2` [(12), 2-(1-furan-2-ylmethyl-piperidin-4-yl)-3-oxo-2,3-dihydro-1H-isoindole-4-carboxylic Acid Amide] the IC50 [3] was 3.9 µM.

In the case of `CC1CCCC(C)N1CCCN1Cc2cccc(C(N)=O)c2C1=O` (stereo not shown) [(27), 2-[3-(2,6-dimethyl-piperidin-1-yl)-propyl]-3-oxo-2,3-dihydro-1H-isoindole-4-carboxylic Acid Amide Hydrochloride], the DC50 [5] is reported as > 10 µM.

With `NC(=O)c1cccc2c1C(=O)N(CCCN1CCN(c3ccccc3)CC1)C2` [(22), 3-oxo-2-[3-(4-phenyl-piperazin-1-yl)-propyl]-23-dihydro-1H-isoindole-4-carboxylic Acid Amide] the Kd [4] was < 0.03 µM, the DC50 [4] was < 0.25 µM and the DC50 [5] was 2.12 µM. It also gave an IC50 [3] of 0.4 µM.

With `NC(=O)c1cccc2c1C(=O)N(CCC1CCN(Cc3ccccc3)CC1)C2` [(31), 2-[2-(1-benzyl-piperidin-4-yl)-ethyl]-3-oxo-2,3-dihydro-1H-isoindole-4-carboxylic Acid Amide Hydrochloride] the DC50 [4] was < 0.25 µM, the DC50 [5] was > 10 µM and the IC50 [3] was 0.2 µM.

In the case of `NC(=O)c1cccc2c1C(=O)N(CCCN1CCc3ccccc3C1)C2` [(19), 2-[3-(3,4-dihydro-1H-isoquinolin-2-yl)-propyl]-3-oxo-2,3-dihydro-1H-isoindole-4-carboxylic Acid Amide], the Kd [4] is reported as < 0.03 µM, the DC50 [4] is reported as < 0.25 µM and the IC50 [3] is reported as 0.33 µM.

In the case of `NC(=O)c1cccc2c1C(=O)N(CCN1CCc3ccccc3C1)C2` [(3), 2-[2-(3,4-dihydro-1H-isoquinolin-2-yl)-ethyl]-3-oxo-2,3-dihydro-1H-isoindole-4-carboxylic Acid Amide], the “F on AUC” value [2] is reported as 30%, the clearance [2] is reported as 3.79 L/h/kg and the Vd [2] is reported as 1.54 L/kg. It also gave an AUC [2] of 2.51 µM·h, a Cmax [2] of 3.06 µM and a half-life [2] of 40.8 min.

In the case of `NC(=O)c1cccc2c1C(=O)N(CCCN1CCC(Cc3ccccc3)CC1)C2` [(32), 2-[3-(4-benzyl-piperidin-1-yl)-propyl]-3-oxo-2,3-dihydro-1H-isoindole-4-carboxylic Acid Amide], the IC50 [3] is reported as 0.17 µM.

For `NC(=O)c1cccc2c1C(=O)N(C1CCN(Cc3ccc[nH]3)CC1)C2` [(16), 3-oxo-2-[1-(1H-pyrrol-2-ylmethyl)-piperidin-4-yl]-2,3-dihydro-1H-isoindole-4-carboxylic Acid Amide], the “F on AUC” value [2] was 37%, the clearance [2] was 4.76 L/h/kg and the Vd [2] was 2.51 L/kg. The AUC [2] was 2.13 µM·h, the Cmax [2] was 2.97 µM and the half-life [2] was 37.8 min. For the same compound, the IC50 [3] was 0.02 µM.

For `O=C(c1cc(Cc2n[nH]c(=O)c3ccccc23)ccc1F)N1CCN(C(=O)C2CC2)CC1` [Olaparib], the objective response rate [6] is given as 47%.

In the case of `NC(=O)c1cc(F)cc2c1C(=O)N(CCCN1CCOCC1)C2` [(23), 6-Fluoro-2-(3-morpholin-4-yl-propyl)-3-oxo-2,3-dihydro-1H-isoindole-4-carboxylic Acid Amide], the Kd [4] is reported as < 0.03 µM, the DC50 [4] is reported as < 0.25 µM and the DC50 [5] is reported as 2 µM. The IC50 [3] was 0.4 µM.

With `NC(=O)c1cc(F)cc2c1C(=O)N(C1CCN(C3CCCCC3)CC1)C2` [(29), 2-(1-cyclohexyl-piperidin-4-yl)-6-fluoro-3-oxo-2,3-dihydro-1H-isoindole-4-carboxylic acid amide] the Kd [4] was < 0.01 µM, the DC50 [4] was < 0.25 µM and the DC50 [5] was 2.92 µM. The DC50 ([1]; read-out: PARP-3 (DC50 μM); probe P1) was 1 µM and the IC50 [3] was 0.5 µM.

For `NC(=O)c1cccc2c1C(=O)N(C1CCN(C3CCCCC3)CC1)C2` [(11), 2-(1-cyclohexyl-piperidin-4-yl)-3-oxo-2,3-dihydro-1H-isoindole-4-carboxylic Acid Amide], the Kd [4] was < 0.01 µM, the DC50 [4] was < 0.25 µM and the DC50 [5] was 2.53 µM. The Kd [5] was 1.4 µM, the DC50 [1, 8] was 2.06 µM and the “F on AUC” value [2] was 100%. For the same compound, the clearance [2] was 2.48 L/h/kg, the Vd [2] was 4.47 L/kg and the AUC [2] was 20.4 µM·h. For the same compound, the Cmax [2] was 3.87 µM, the half-life [2] was 163 min and the “Max TGI (%)” value [7] was 42%. The Toxicity [7] was 0/7 and the IC50 [3] was 0.02 µM.

In the case of `NC(=O)c1cccc2c1C(=O)N(C1CCN(Cc3ccccn3)CC1)C2` [(15), 3-oxo-2-(1-pyridin-2-ylmethyl-piperidin-4-yl)-2,3-dihydro-1H-isoindole-4-carboxylic Acid Amide], the DC50 [1, 8] is reported as 0.9 µM, the “F on AUC” value [2] is reported as 68% and the clearance [2] is reported as 1.01 L/h/kg. It also gave a Vd [2] of 0.79 L/kg, an AUC [2] of 19.2 µM·h and a Cmax [2] of 8.73 µM. For the same compound, the half-life [2] was 60.6 min, the “Max TGI (%)” value [7] was 54% and the Toxicity [7] was 0/7.

For `NC(=O)c1cccc2c1C(=O)N(CCCc1ccccc1)C2` [(17), 3-oxo-2-(3-phenyl-propyl)-2,3-dihydro-1H-isoindole-4-carboxylic Acid Amide], the IC50 [3] was 1.51 µM.

`CN1CCN(CCCN2Cc3cccc(C(N)=O)c3C2=O)CC1` [(21), 2-[3-(4-methyl-piperazin-1-yl)-propyl]-3-oxo-2,3-dihydro-1H-isoindole-4-carboxylic Acid Amide] showed a DC50 [4] of 0.28 µM and an IC50 [3] of 0.6 µM.

With `NC(=O)c1cccc2c1C(=O)N(C1CCN(Cc3ccccc3)CC1)C2` [(30), 2-(1-benzyl-piperidin-4-yl)-3-oxo-2,3-dihydro-1H-isoindole-4-carboxylic Acid Amide] the DC50 [4] was < 0.25 µM and the DC50 [1, 8] was 0.35 µM.

Compound `NC(=O)c1cccc2c1C(=O)N(C1CCN(CC3CC3)CC1)C2` [(24), 2-(1-cyclopropylmethyl-piperidin-4-yl)-3-oxo-2,3-dihydro-1H-isoindole-4-carboxylic Acid Amide] has an IC50 [3] of 0.11 µM.
